Data on three compounds can be found in US4459293A, “Method of modulating the complement system by administering bis-[β-D-glucopyranosyl-1-thio (or sulfinyl or sulfonyl)]-aryline sulfate derivatives and the cation salts thereof” (American Cyanamid Company, priority 1983, dated 1984).

One assay has as its target T1, activated human C1 (Homo sapiens, UniProt P09871).
T1 construct: fluid-phase C2 destruction in presence of C4
Briefly: Test Code 026 (C1 inhibitor): protection of fluid phase human C2 from activated human C1 in the presence of C4, serial dilution assay. The conditions noted are these: activity in wells, twofold serial dilutions; higher well number indicates higher activity. In kind it is biochemical. The protocol:
(§1) An active inhibitor protects C2 from C1 and C4; (ii) Test Code 035 (C3-C9 inhibitor)--This test determines the ability of the late components of human complement (C3-C9) to lyse EAC 142 in the presence of appropriate dilutions of the test compound. An active inhibitor protects EAC 142 from lysis by human C3-C9; and (iii) Cap 50 Test--Here, appropriate amounts of the test compound are added to a pool of guinea pig serum in vitro, after which the undiluted serum capillary tube assay of U.S. Pat. No. 3,876,376 is run. The concentration of compound inhibiting 50% is reported.
(§2) **Activity in wells, a serial dilution assay; higher well number indicate
(§3) higher activitiy. The serial dilutions are twofold.

In assay [1] the test system is late components of human complement (C3-C9). Put plainly: Test Code 035 (C3-C9 inhibitor): protection of EAC 142 from lysis by late components of human complement. In kind it is biochemical. The conditions noted are these: activity in wells, twofold serial dilutions; higher well number indicates higher activity. The protocol:
as §1, §2, §3

Counter-ions that a name gives are not always drawn.

T1 sequence (P09871 16-688): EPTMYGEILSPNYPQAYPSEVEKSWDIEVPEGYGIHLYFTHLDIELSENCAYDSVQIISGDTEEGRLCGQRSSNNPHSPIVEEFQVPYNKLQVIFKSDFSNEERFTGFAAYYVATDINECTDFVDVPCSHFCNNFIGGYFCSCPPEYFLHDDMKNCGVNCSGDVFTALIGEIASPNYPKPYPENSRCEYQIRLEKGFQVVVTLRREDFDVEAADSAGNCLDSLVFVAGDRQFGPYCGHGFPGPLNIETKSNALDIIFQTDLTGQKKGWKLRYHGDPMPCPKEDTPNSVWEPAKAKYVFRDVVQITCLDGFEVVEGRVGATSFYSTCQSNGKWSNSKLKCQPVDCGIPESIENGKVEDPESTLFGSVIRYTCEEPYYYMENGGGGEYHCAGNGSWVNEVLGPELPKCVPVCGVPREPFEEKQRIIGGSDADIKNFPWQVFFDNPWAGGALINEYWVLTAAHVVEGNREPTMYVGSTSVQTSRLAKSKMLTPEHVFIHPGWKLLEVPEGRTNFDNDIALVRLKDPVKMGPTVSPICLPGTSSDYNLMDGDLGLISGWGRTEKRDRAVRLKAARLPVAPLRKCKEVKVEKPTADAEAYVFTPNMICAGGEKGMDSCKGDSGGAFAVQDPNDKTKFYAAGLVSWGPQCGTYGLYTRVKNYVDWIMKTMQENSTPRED
T1 sequence (P00736 18-705 partner): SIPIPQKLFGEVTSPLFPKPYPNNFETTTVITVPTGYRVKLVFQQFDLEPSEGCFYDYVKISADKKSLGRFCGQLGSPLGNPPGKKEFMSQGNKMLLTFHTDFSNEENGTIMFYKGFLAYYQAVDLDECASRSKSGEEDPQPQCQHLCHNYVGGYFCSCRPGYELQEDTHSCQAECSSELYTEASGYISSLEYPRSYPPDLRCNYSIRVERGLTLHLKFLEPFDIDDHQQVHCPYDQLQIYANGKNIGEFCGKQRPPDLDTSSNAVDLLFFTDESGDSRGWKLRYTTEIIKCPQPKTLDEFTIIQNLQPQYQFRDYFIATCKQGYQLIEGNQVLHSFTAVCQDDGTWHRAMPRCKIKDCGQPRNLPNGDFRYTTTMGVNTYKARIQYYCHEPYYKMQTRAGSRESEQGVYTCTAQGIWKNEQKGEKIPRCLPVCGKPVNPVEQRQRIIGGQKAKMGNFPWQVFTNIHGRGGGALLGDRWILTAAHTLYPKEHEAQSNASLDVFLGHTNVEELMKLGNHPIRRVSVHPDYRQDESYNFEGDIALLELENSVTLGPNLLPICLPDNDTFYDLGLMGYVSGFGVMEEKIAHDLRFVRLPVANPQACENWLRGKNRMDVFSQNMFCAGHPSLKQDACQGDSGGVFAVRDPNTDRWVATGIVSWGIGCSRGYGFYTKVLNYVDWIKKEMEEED
T1 sequence (P02745 23-245 partner): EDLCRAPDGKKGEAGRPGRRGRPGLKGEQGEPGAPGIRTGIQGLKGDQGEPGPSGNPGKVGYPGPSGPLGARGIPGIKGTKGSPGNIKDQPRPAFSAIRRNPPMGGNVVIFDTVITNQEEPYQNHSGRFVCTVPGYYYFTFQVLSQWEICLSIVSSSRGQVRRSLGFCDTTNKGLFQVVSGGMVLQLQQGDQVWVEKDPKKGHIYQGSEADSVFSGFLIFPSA
T1 sequence (P02746 28-253 partner): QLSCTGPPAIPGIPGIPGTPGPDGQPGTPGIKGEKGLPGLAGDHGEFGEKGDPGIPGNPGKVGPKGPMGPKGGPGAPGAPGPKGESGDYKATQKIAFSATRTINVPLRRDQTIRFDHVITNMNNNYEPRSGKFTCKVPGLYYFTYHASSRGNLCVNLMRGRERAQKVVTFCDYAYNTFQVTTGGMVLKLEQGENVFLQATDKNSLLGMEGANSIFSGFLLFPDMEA
T1 sequence (P02747 29-245 partner): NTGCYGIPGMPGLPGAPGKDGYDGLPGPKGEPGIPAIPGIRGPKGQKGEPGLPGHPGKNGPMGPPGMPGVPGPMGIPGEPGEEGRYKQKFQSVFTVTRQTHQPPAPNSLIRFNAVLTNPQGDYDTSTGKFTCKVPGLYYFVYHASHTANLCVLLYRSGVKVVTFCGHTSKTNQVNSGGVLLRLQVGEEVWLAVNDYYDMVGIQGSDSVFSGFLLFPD

With `CC(=O)N[C@@H]1[C@@H](OS(=O)(=O)O)[C@H](OS(=O)(=O)O)[C@@H](COS(=O)(=O)O)O[C@H]1Sc1cccc(S[C@@H]2O[C@H](COS(=O)(=O)O)[C@@H](OS(=O)(=O)O)[C@H](OS(=O)(=O)O)[C@H]2NC(C)=O)c1` [1,3-Bis-[β-D-(2-acetylamino)-glucopyranosyl-1-thio]-phenylene, hexakis(H-sulfate), hexasodium salt], the “Cl 026 Wells” value at activated human C1 was found to be 5 Wells. In addition, the “C-Late 035 Wells” value in assay [1] is recorded as 1 Wells.

`O=C(O)[C@H]1O[C@@H](Sc2cccc(S[C@@H]3O[C@H](C(=O)O)[C@@H](OS(=O)(=O)O)[C@H](OS(=O)(=O)O)[C@H]3OS(=O)(=O)O)c2)[C@H](OS(=O)(=O)O)[C@@H](OS(=O)(=O)O)[C@@H]1OS(=O)(=O)O` [1,3-Bis[β-D-glucopyranosiduronic acid-1-thio]-phenylene, hexakis(H-sulfate), octasodium salt]: the “Cl 026 Wells” value at activated human C1 is 5 Wells.

`O=S(=O)(O)OC[C@H]1O[C@@H](Sc2ccc(Oc3ccc(S[C@@H]4O[C@H](COS(=O)(=O)O)[C@@H](OS(=O)(=O)O)[C@H](OS(=O)(=O)O)[C@H]4OS(=O)(=O)O)cc3)cc2)[C@H](OS(=O)(=O)O)[C@@H](OS(=O)(=O)O)[C@@H]1OS(=O)(=O)O` [Oxydi-p-phenylene bis-[1-thio-β-D-glucopyranoside], octakis(H-sulfate), octasodium salt]: the “Cl 026 Wells” value on activated human C1 came out at 4 Wells.
